In the NIST ThermoML archive (doi:10.1007/s10765-013-1469-0):

Assay: refractive index (Na D-line) (dimensionless); xn = mol fraction of the nth substance listed
Settings: 101 kPa, Liquid, Standard Abbe refractometry

COCCOCCOCCOCCOC [2,5,8,11,14-pentaoxapentadecane] + CCCCO
refractive index
Settings | 288.15 K | 293.15 K | 298.15 K | 303.15 K | 308.15 K | 313.15 K | 318.15 K | 323.15 K | 328.15 K | 333.15 K
x2 = 0 | 1.4345 | 1.43238 | 1.43027 | 1.42815 | 1.42603 | 1.42394 | 1.42183 | 1.41973 | 1.41765 | 1.41553
x2 = 0.1013 | 1.43292 | 1.43079 | 1.42868 | 1.42658 | 1.42448 | 1.42237 | 1.42027 | 1.41818 | 1.41611 | 1.41403
x2 = 0.2236 | 1.43083 | 1.42871 | 1.42659 | 1.42448 | 1.42237 | 1.42024 | 1.41815 | 1.41604 | 1.41396 | 1.41186
x2 = 0.3036 | 1.42941 | 1.4273 | 1.42517 | 1.42306 | 1.42094 | 1.41881 | 1.41673 | 1.41461 | 1.41251 | 1.4104
x2 = 0.4131 | 1.42694 | 1.42482 | 1.42271 | 1.42058 | 1.41846 | 1.41635 | 1.41424 | 1.4121 | 1.40998 | 1.40784
x2 = 0.5065 | 1.42465 | 1.42256 | 1.42044 | 1.4183 | 1.41616 | 1.41403 | 1.41192 | 1.40977 | 1.40763 | 1.40547
x2 = 0.5996 | 1.42188 | 1.41981 | 1.41772 | 1.41558 | 1.41346 | 1.41132 | 1.40924 | 1.40709 | 1.40491 | 1.40273
x2 = 0.7007 | 1.41822 | 1.41614 | 1.41408 | 1.41199 | 1.40985 | 1.40775 | 1.40562 | 1.40351 | 1.40133 | 1.39917
x2 = 0.7991 | 1.41381 | 1.41175 | 1.40972 | 1.40769 | 1.40559 | 1.40349 | 1.40133 | 1.39924 | 1.39712 | 1.39497
x2 = 0.8996 | 1.40823 | 1.40619 | 1.40418 | 1.40216 | 1.40005 | 1.39795 | 1.39583 | 1.39374 | 1.3916 | 1.38936
